# Source: US20230011869A1 (Hoffmann-La Roche Inc., priority 2018, published 2023)
# Structures can show the parent of a compound that is named as a salt.
# Tested on: Acinetobacter baumannii ATCC17978
# Experiment: Antimicrobial susceptibility testing: 90% growth inhibitory concentration (IC90) determination, Iso-Sensitest broth
# Assay type: cell-based
# Conditions: 90% growth inhibitory concentration, Acinetobacter baumannii ATCC17978, Iso-Sensitest broth, OD 600 nm over 16 h; read-out: ATCC17978 IC90
# How it was run: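 A. baumannii ATCC17978 grown in Iso-Sensitest broth across 10 compound concentrations at 35±2 °C.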
row,Structure (SMILES),IC90
1,"N#CCOc1ccc(-c2cnc3c(Nc4ccc(C(=O)N5CCC(C(=O)OCC6CNCCN6)CC5)c(Cl)c4)nccn23)c(F)c1F (stereo not shown) [Example 98, piperazin-2-ylmethyl 1-[2-chloro-4-[[3-[4-(cyanomethoxy)-2,3-difluoro-phenyl]imidazo[1,2-a]pyrazin-8-yl]amino]benzoyl]piperidine-4-carboxylate trifluoroacetate]",85 nM
2,"COc1ccc(-c2cnc3c(Nc4ccc(C(=O)N5CCN(C(=O)N6CCO[C@@H](CN)C6)CC5)c(C)c4)nccn23)c(F)c1F [Example 145, [4-[(2S)-2-(aminomethyl)morpholine-4-carbonyl]piperazin-1-yl]-[4-[[3-(2,3-difluoro-4-methoxy-phenyl)imidazo[1,2-a]pyrazin-8-yl]amino]-2-methyl-phenyl]methanone formate]",170 nM

# Further lines, results first:
row,IC90,Structure (SMILES)
1,190 nM,"COc1ccc(-c2cnc3c(Nc4ccc(C(=O)N5CCN(C(=O)[C@@H]6CCNC[C@H]6O)CC5)c(C)c4)nccn23)c(Cl)c1F [Example 216, [4-[[3-(2-chloro-3-fluoro-4-methoxy-phenyl)imidazo[1,2-a]pyrazin-8-yl]amino]-2-methyl-phenyl]-[4-[(3S,4R)-3-hydroxypiperidine-4-carbonyl]piperazin-1-yl]methanone formate]"
2,140 nM,"COc1ccc(-c2cnc3c(Nc4ccc(C(=O)N5CCC(C(=O)NCCN(C)C)CC5)c(C)c4)nccn23)cc1F [Example 47, N-[2-(dimethylamino)ethyl]-1-[4-[[3-(3-fluoro-4-methoxyphenyl)imidazo[1,2-a]pyrazin-8-yl]amino]-2-methylbenzoyl]piperidine-4-carboxamide]"
3,150 nM,"COc1ccc(-c2cnc3c(Nc4ccc(C(=O)N5CCC(CNC(C)=O)CC5)c(C)c4)nccn23)cc1 [Example 103, N-((1-(4-((3-(4-methoxyphenyl)imidazo[1,2-a]pyrazin-8-yl)amino)-2-methylbenzoyl)piperidin-4-yl)methyl)acetamide]"
4,540 nM,"Cc1cc(Nc2nccn3c(-c4ccc(OC5CC5)c(Cl)c4)cnc23)ccc1C(=O)N1CCC(CN)CC1 [Example 117, [4-(aminomethyl)-1-piperidyl]-[4-[[3-[3-chloro-4-(cyclopropoxy)phenyl]imidazo[1,2-a]pyrazin-8-yl]amino]-2-methyl-phenyl]methanone formate]"
5,140 nM,"CNCC(=O)NCC1CCN(C(=O)c2ccc(Nc3nccn4c(-c5ccc(OCC#N)c(F)c5F)cnc34)cc2C)CC1 [Example 102, N-[[1-[4-[[3-[4-(cyanomethoxy)-2,3-difluoro-phenyl]imidazo[1,2-a]pyrazin-8-yl]amino]-2-methyl-benzoyl]-4-piperidyl]methyl]-2-(methylamino)acetamide]"

# Same assay, conditions: Acinetobacter baumannii, ATCC17978, 16 h, read-out: ATCC17978 IC90, 90% growth inhibitory concentration, Acinetobacter baumannii ATCC17978, Iso-Sensitest broth, OD 600 nm over 16 h
row,Structure (SMILES),IC90
1,"COc1ccc(-c2cnc3c(Nc4ccc(C(=O)N5CCC(C(=O)NCC(O)CN)CC5)c(C)c4)nccn23)c(F)c1F (stereo not shown) [Example 291, N-(3-amino-2-hydroxypropyl)-1-[4-[[3-(2,3-difluoro-4-methoxyphenyl)imidazo[1,2-a]pyrazin-8-yl]amino]-2-methylbenzoyl]piperidine-4-carboxamide; hydrochloride]",110 nM
2,"COc1ccc(-c2cnc3c(Nc4ccc(C(=O)N5CCN(C(=O)[C@H](CCCN)NC(=O)CC[C@H](N)C(=O)O)CC5)c(C)c4)nccn23)c(F)c1F [Example 533, (2S)-2-amino-5-[[(2S)-5-amino-1-[4-[4-[[3-(2,3-difluoro-4-methoxyphenyl)imidazo[1,2-a]pyrazin-8-yl]amino]-2-methylbenzoyl]piperazin-1-yl]-1-oxopentan-2-yl]amino]-5-oxopentanoic acid; hydrochloride]",1500 nM
3,"CN1CCN(C(=O)c2ccc(Nc3nccn4c(-c5ccc(OC(F)F)cc5)cnc34)cc2C(F)(F)F)CC1 [Example 385, [4-[[3-[4-(difluoromethoxy)phenyl]imi-dazo[1,2-a]pyrazin-8-yl]amino]-2-(trifluoromethyl)phenyl]-(4-methylpiperazin-1-yl)methanone]",7400 nM
